According to patent publication US20030153951A1, “Methods and devices for treating arrhythmias using defibrillation shocks” (priority 2002, published 2003):

How the values were obtained:
[1] = Systolic blood pressure monitored during the defibrillation threshold study; assay type: in vivo; conditions: pigs
Source text: (§1) Six healthy pigs (30-35 kg) of either sex were anesthetized, monitored, and maintained under physiologic conditions. See, Chattipakorn et al. (2000). Two catheter-mounted platinum coated titanium coil electrodes were used as defibrillating electrodes. A 34-mm catheter was inserted into the right ventricular (RV) apex and served as the cathode for the first phase of the biphasic shock. […] The position of the catheters was verified with fluoroscopy. The blood pressure and heart rate were monitored continuously throughout the entire study.
The defibrillation threshold was determined 4 times during 4 different conditions in this study. The defibrillation threshold in each group was determined using a 3-reversal up/down protocol. See Chattipakorn et al. The first defibrillation threshold was determined at the beginning of the study. This defibrillation threshold was used as a control defibrillation threshold (control-DFT). […] The second defibrillation threshold (drug-DFT) was determined 15 minutes after the application of Flunarizine. After the drug-DFT was obtained, the administration of Flunarizine was terminated while the blood pressure and heart rate were monitored. The third defibrillation threshold (washout-DFT) was determined again when the blood pressure returned to the control level which normally took 60 minutes after the termination of the drug. […]

[2] = tested on: ventricular fibrillation; assay: Defibrillation threshold (3-reversal up/down protocol) after electrically induced ventricular fibrillation in anesthetized pigs; assay type: in vivo
Source text: as §1
Ventricular fibrillation was induced by 60-Hz alternating current delivered via an electrode at the tip of the RV catheter. After 10 seconds of ventricular fibrillation, defibrillation was attempted with 10-ms biphasic truncated exponential shocks. Delivered voltage and current were recorded on a waveform analyzer and total delivered energy was calculated. A minimum of 4 min was allowed to elapse between ventricular fibrillation episodes.
The defibrillation threshold was determined 4 times during 4 different conditions in this study. The defibrillation threshold in each group was determined using a 3-reversal up/down protocol. See Chattipakorn et al. The first defibrillation threshold was determined at the beginning of the study. This defibrillation threshold was used as a control defibrillation threshold (control-DFT). Then, Flunarizine, a delayed afterdepolarization inhibitor, was injected intravenously as a bolus (2 mg/kg) and maintenance (4 mg/kg/hr) dose. The second defibrillation threshold (drug-DFT) was determined 15 minutes after the application of Flunarizine. After the drug-DFT was obtained, the administration of Flunarizine was terminated while the blood pressure and heart rate were monitored. The third defibrillation threshold (washout-DFT) was determined again when the blood pressure returned to the control level which normally took 60 minutes after the termination of the drug.
Values are shown as mean standard deviation. Comparisons of data among different defibrillation threshold groups were performed using an analysis of variance. When statistical significance was found, individual differences were analyzed with a Fisher's post-hoc test. Differences were considered significant when P<0.05.

Q: With Fc1ccc(C(c2ccc(F)cc2)N2CCN(C/C=C/c3ccccc3)CC2)cc1 [Flunarizine] as the molecule, how does the systolic blood pressure ([1]; after i.v. injection (bolus 2 mg/kg + 4 mg/kg/hr), mean ± SD, control 102±11 mmHg) read?
A: 76±10 mmHg

Q: What about the “reduction of the systolic blood pressure” value ([1]; vs control) of the same molecule?
A: ~26%

Q: What about the “washout defibrillation threshold compared with control-DFT” value ([2]; after termination of drug, when blood pressure returned to control level (normally 60 minutes)) of the same molecule?
A: not significantly different from the control-DFT

Q: And the “reduction of the defibrillation threshold by energy” value ([2]; drug-DFT vs control-DFT)?
A: approximately 40%

Q: What about the “reduction of the defibrillation threshold by leading edge voltage” value ([2]; drug-DFT vs control-DFT) of the same molecule?
A: approximately 22%

Q: What about the “drug-DFT, delivered leading edge voltage” value ([2]; i.v. bolus 2 mg/kg + maintenance 4 mg/kg/hr, determined 15 minutes after application, 10-ms biphasic shocks, mean ± SD, control-DFT 623±120 volts) of the same molecule?
A: 485±82 volts

Q: And the “drug-DFT, total delivered energy” value ([2]; i.v. bolus 2 mg/kg + maintenance 4 mg/kg/hr, determined 15 minutes after application, mean ± SD, control-DFT 23±4 joules)?
A: 14±3 joules
